The text below walks through data of ChEMBL document CHEMBL3085631, “GluK1 antagonists from 6-(tetrazolyl)phenyl decahydroisoquinoline derivatives: in vitro profile and in vivo analgesic efficacy” (Bioorg Med Chem Lett, 2013).

Data set [1] addresses Glutamate receptor ionotropic, kainate 1 (Homo sapiens, UniProt P39086). Kind of data set: Displacement of [3H]ATPA from human Gluk1 receptor. For orientation: Loss of bound radioactivity is the signal in a displacement assay; it reports binding, not function.
The target of data set [2] is Glutamate receptor 2 (Homo sapiens, UniProt P42262). Kind of data set: Displacement of [3H]AMPA from homomeric recombinant GluA2 receptor (unknown origin).
Data set [3] has as its system Rattus norvegicus. Nature of the data set: Analgesic activity in rat assessed as reversal of carrageenan-induced thermal hyperalgesia at 10 mg/kg, sc after 30 to 40 mins relative to vehicle-treated control. Type of data set: functional. The settings on record: route subcutaneous.
Data set [4] concerns Rattus norvegicus. Kind of data set: Analgesic activity in po dosed rat assessed as reversal of carrageenan-induced thermal hyperalgesia after 60 mins. The settings on record: 1 h, read-out: MED. Type of data set: functional.
Data set [5] concerns Rattus norvegicus. Nature of the data set: Analgesic activity in po dosed Sprague-Dawley rat assessed as reversal of formalin-induced late-phase paw-licking behavior after 1 hr. Type of data set: functional. The settings on record: read-out: MED.
Data set [6] is described as follows: Oral bioavailability in rat at 5 mg/kg. The format is ADME, organism-based. The settings on record: in vivo.
Data set [7] is described as follows: Plasma concentration in rat at 5 mg/kg, po after 1 hr. Type of data set: ADME, organism-based. Details: dose 5 mg/kg, route oral.
Data set [8] relates to Rattus norvegicus. Kind of data set: Toxicity in Sprague-Dawley rat assessed as sedation at 5 to 10 mg/kg, po by rotarod test. Type of data set: organism-based. Set-up: dose 5-10 mg/kg, route oral. The settings on record: in vivo.
Data set [9] has as its system Rattus norvegicus. Nature of the data set: Toxicity in Sprague-Dawley rat assessed as ataxia at 5 to 10 mg/kg, po by rotarod test. Type of data set: organism-based. Set-up: dose 5-10 mg/kg, route oral. Particulars: in vivo. On the technique in general: The rotarod test checks motor coordination on a turning rod.

Glutamate receptor ionotropic, kainate 1, sequence (P39086 whole entry): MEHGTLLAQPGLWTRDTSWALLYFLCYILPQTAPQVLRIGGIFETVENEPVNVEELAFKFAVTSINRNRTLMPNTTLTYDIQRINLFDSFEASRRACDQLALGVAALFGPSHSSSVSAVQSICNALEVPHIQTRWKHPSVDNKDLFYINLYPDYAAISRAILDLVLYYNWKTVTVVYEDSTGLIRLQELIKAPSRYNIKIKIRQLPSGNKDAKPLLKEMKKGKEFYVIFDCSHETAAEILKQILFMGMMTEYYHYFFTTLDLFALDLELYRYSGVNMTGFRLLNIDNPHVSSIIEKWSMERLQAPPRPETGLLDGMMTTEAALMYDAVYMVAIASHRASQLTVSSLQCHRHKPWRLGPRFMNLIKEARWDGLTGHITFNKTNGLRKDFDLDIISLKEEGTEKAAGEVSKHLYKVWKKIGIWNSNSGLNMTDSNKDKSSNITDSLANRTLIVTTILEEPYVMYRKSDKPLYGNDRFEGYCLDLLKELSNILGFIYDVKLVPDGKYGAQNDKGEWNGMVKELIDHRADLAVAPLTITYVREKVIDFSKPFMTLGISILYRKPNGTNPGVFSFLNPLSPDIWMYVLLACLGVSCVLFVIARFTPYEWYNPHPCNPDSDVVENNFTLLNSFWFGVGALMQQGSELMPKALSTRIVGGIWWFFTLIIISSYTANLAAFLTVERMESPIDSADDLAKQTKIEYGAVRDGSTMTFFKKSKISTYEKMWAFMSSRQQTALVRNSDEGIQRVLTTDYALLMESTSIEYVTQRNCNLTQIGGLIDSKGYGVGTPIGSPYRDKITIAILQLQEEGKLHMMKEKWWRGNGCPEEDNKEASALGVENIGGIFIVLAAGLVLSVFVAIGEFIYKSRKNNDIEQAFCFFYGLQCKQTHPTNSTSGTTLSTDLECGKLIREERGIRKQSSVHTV
Glutamate receptor 2, sequence (P42262 whole entry): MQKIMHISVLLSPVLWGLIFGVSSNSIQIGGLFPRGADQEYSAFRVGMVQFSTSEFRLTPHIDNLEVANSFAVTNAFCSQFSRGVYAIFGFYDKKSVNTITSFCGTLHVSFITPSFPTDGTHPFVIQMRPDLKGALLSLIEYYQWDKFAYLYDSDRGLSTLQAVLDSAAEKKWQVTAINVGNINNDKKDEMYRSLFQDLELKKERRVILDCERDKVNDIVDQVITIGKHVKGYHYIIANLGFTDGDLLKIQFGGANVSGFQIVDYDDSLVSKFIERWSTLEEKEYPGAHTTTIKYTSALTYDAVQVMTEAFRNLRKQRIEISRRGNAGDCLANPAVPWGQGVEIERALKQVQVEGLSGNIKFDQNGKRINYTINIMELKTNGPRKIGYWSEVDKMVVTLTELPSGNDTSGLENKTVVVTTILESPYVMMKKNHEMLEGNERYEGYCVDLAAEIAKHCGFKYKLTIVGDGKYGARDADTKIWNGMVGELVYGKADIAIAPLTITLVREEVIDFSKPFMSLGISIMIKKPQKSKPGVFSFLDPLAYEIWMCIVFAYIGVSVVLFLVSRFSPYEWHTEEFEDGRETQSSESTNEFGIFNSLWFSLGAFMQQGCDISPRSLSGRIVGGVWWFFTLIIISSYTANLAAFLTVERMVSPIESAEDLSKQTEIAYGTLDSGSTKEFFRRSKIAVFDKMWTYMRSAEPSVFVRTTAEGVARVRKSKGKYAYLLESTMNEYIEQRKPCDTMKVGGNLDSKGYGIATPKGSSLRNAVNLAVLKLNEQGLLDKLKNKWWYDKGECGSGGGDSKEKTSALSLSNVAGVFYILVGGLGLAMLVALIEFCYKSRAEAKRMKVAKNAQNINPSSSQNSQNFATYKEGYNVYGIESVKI

Consider `O=C(O)[C@@H]1C[C@H]2C[C@@H](Oc3cc(-c4ccc(Cl)cc4)ccc3-c3nnn[nH]3)CC[C@H]2CN1`, for which the Ki worked out at 20 nM in data set [1] and 3 nM in data set [2].

In the case of `COc1cccc(N[C@H]2CC[C@H]3CN[C@H](C(=O)O)C[C@H]3C2)c1-c1nnn[nH]1`, the values for the Ki in [1] and in data set [2] were 12800 nM and 181000 nM, respectively.

`Cl.O=C(O)c1ccc(C[C@H]2CC[C@H]3CN[C@H](C(=O)O)C[C@H]3C2)cc1`: the Activity in data set [3] amounted to 67.8%.

On to `COc1ccc(-c2nnn[nH]2)c(O[C@H]2CC[C@H]3CN[C@H](C(=O)O)C[C@H]3C2)c1`, for which the figures for the Ki in [1] and in data set [2] were 1400 nM and 2000 nM, respectively.

Take `Cc1ccc(-c2nnn[nH]2)c(O[C@H]2CC[C@H]3CN[C@H](C(=O)O)C[C@H]3C2)c1`: the Ki in data set [1] came out at 1100 nM; in data set [2], 5200 nM.

Regarding `Cc1ccc(-c2nnn[nH]2)c(N[C@H]2CC[C@H]3CN[C@H](C(=O)O)C[C@H]3C2)c1`, the results for the Ki in data set [1] and in data set [2] were 2900 nM and 6200 nM, respectively.

On to `O=C(O)[C@@H]1C[C@H]2C[C@@H](Oc3cc(-c4cccc(Cl)c4)ccc3-c3nnn[nH]3)CC[C@H]2CN1`, for which the figures for the Ki in data set [1] and in data set [2] were 700 nM and 1700 nM, respectively.

`O=C(O)[C@@H]1C[C@H]2C[C@@H](Nc3cc(-c4ccccc4)ccc3-c3nnn[nH]3)CC[C@H]2CN1`: the Ki amounted to 1100 nM in [1] and 3500 nM in data set [2].

Consider `CC(C)Oc1ccc(-c2nnn[nH]2)c(O[C@H]2CC[C@H]3CN[C@H](C(=O)O)C[C@H]3C2)c1.Cl`, for which, in [3], the Activity turned out to be 76.9%. Moreover, the Ki in [1] is 900 nM; in data set [2], 12000 nM.

As to `O=C(O)[C@@H]1C[C@H]2C[C@@H](Nc3ccc(F)cc3-c3nnn[nH]3)CC[C@H]2CN1`, the Ki in [2] came out at 12000 nM.

As to `Cc1cccc(N[C@H]2CC[C@H]3CN[C@H](C(=O)O)C[C@H]3C2)c1-c1nnn[nH]1`, the inhibition constant Ki in data set [1] worked out at 3200 nM; in data set [2], 128000 nM.

For the compound `O=C(O)[C@@H]1C[C@H]2C[C@@H](Oc3c(F)cccc3-c3nnn[nH]3)CC[C@H]2CN1`, the Ki in data set [1] was determined as 422000 nM; in data set [2] it was 450000 nM.

`O=C(O)[C@@H]1C[C@H]2C[C@@H](Oc3cc(-c4cccs4)ccc3-c3nnn[nH]3)CC[C@H]2CN1`: the Ki in data set [1] came to 90 nM; in [2] it was 4400 nM.

On to `Cl.O=C(O)[C@@H]1C[C@H]2C[C@@H](Oc3cccc(Cl)c3-c3nnn[nH]3)CC[C@H]2CN1`, for which the figures for the minimal effective dose in data set [4] and in data set [5] were 3 mg/kg and 1 mg/kg, respectively. Also, the Activity is given as 80.2% in data set [3], “Toxic” in [8] and “Toxic” in data set [9]. Moreover, the Ki in data set [1] stood at 200 nM; in data set [2], 30000 nM. The compound also returned a bioavailability in data set [6] of 42%. Further, the concentration at 1 h in data set [7] was 1020 ng/mL.

On to `Cl.O=C(O)[C@@H]1C[C@H]2C[C@@H](Sc3ccccc3-c3nnn[nH]3)CC[C@H]2CN1`, for which the Activity in data set [3] worked out at 52.6%. Also, the Ki is 600 nM in data set [1] and 22000 nM in [2].

With `Cl.O=C(O)[C@@H]1C[C@H]2C[C@@H](Oc3cc(OCc4ccccc4)ccc3-c3nnn[nH]3)CC[C@H]2CN1`, the Activity in [3] amounted to 81.7%. In addition, the results for the inhibition constant (Ki) in data set [1] and in data set [2] were 160 nM and 17000 nM, respectively.

Consider `O=C(O)[C@@H]1C[C@H]2C[C@@H](Oc3ccc(F)cc3-c3nnn[nH]3)CC[C@H]2CN1`, for which the Ki came to 900 nM in data set [1] and 2700 nM in data set [2].

With `O=C(O)[C@@H]1C[C@H]2C[C@@H](Oc3cc(-c4ccccc4Cl)ccc3-c3nnn[nH]3)CC[C@H]2CN1`, the Ki in data set [1] amounted to 1000 nM; in data set [2], 13000 nM.

As to `O=C(O)[C@@H]1C[C@H]2C[C@@H](Oc3ccc(Cl)cc3-c3nnn[nH]3)CC[C@H]2CN1`, the Ki in data set [1] and in data set [2] was 400 nM each time.

With `O=C(O)[C@@H]1C[C@H]2C[C@@H](Nc3cccc(Cl)c3-c3nnn[nH]3)CC[C@H]2CN1`, the Ki in data set [2] came out at 6400 nM.

Turning to `Cl.O=C(O)[C@@H]1C[C@H]2C[C@@H](Oc3cc(-c4ccccc4)ccc3-c3nnn[nH]3)CC[C@H]2CN1`, the Activity in data set [3] came to 100.8%. In addition, the figures for the Ki in data set [1] and in data set [2] were 100 nM and 2300 nM, respectively.

Turning to `O=C(O)[C@@H]1C[C@H]2C[C@@H](Oc3cc(CCc4ccccc4)ccc3-c3nnn[nH]3)CC[C@H]2CN1`, the Ki in [1] worked out at 1700 nM; in data set [2] it was 9600 nM.

As to `COc1cccc(O[C@H]2CC[C@H]3CN[C@H](C(=O)O)C[C@H]3C2)c1-c1nnn[nH]1`, the inhibition constant Ki in data set [1] came out at 1100 nM; in data set [2], 252000 nM.

As to `Cl.O=C(O)[C@@H]1C[C@H]2C[C@@H](Oc3cc(Cc4ccccc4)ccc3-c3nnn[nH]3)CC[C@H]2CN1`, the Activity in [3] worked out at 89.8%. Also, the values for the Ki in [1] and in [2] were 160 nM and 9600 nM, respectively.

In the case of `O=C(O)[C@@H]1C[C@H]2C[C@@H](Oc3cc(Oc4ccccc4)ccc3-c3nnn[nH]3)CC[C@H]2CN1`, the Ki stood at 17000 nM in data set [1] and 335000 nM in data set [2].

On to `O=C(O)[C@@H]1C[C@H]2C[C@@H](Nc3ccccc3-c3nn[nH]n3)CC[C@H]2CN1`, for which, in data set [3], the Activity worked out at 124.8%. The values for the Ki in data set [1] and in [2] were 800 nM and 6000 nM, respectively.

As for `O=C(O)[C@@H]1C[C@H]2C[C@@H](Oc3cc(-c4nccs4)ccc3-c3nnn[nH]3)CC[C@H]2CN1`, the figures for the Ki in data set [1] and in data set [2] were 900 nM and 2200 nM, respectively.

Turning to `Cl.O=C(O)[C@@H]1C[C@H]2C[C@@H](Cc3ccccc3-c3nnn[nH]3)CC[C@H]2CN1`, the Activity in [3] amounted to 73%. Further, the results for the Ki in [1] and in data set [2] were 3000 nM and 13000 nM, respectively.

For the compound `O=C(O)[C@@H]1C[C@H]2C[C@@H](Oc3ccccc3-c3nn[nH]n3)CC[C@H]2CN1`, the Activity in [3] was 152.6%. Moreover, the results for the Ki in data set [1] and in data set [2] were 1200 nM and 16000 nM, respectively.

With `O=C(O)[C@@H]1C[C@H]2C[C@@H](Oc3cc(-c4cccnc4)ccc3-c3nnn[nH]3)CC[C@H]2CN1`, the Ki in data set [1] was found to be 10000 nM; in data set [2] it was 20000 nM.

Take `O=C(O)[C@@H]1C[C@H]2C[C@@H](CCc3nn[nH]n3)CC[C@H]2CN1` [TEZAMPANEL ANHYDROUS]: the Activity in [3] is reported as 133%.

Broadly, the Ki is a measure of affinity in units of concentration, obtained from inhibition or displacement. By bioavailability is commonly meant the share of a dose that reaches the circulation, judged against a reference dose that is usually intravenous. A low value points to little systemic uptake.
